Experiment [1] deals with hESC-derived ECs versus ACL cells. As to the kind of experiment: High-throughput screening of LOPAC library, PrestoBlue cell viability, hESC-derived ECs versus ACL cells. The class given is cell-based, human. The following applies: LOPAC screen, 4.5 μM, 4 days of incubation, PrestoBlue assay. A digest of the protocol:
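HUAECs and hESC-derived ECs in EGM-2 and ACL cells in DMEM/10% FBS were grown to near confluence, then exposed for 4 days to single-dose compound at 4.5 μM (0.25% DMSO). Viability was read by PrestoBlue (10%, 3 h, 37 °C) as absorbance at 560-590 nm. Hits were retested at eight concentrations for dose-response.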

The test system of experiment [2] is hESC-derived ECs versus HUAECs. As to the kind of experiment: High-throughput screening of LOPAC library, PrestoBlue cell viability, hESC-derived ECs versus HUAECs. The following applies: LOPAC screen, 4.5 μM, 4 days, PrestoBlue assay. The class given is cell-based, human. How it is done: High-throughput screening (HTS). HUAECS (Lonza) and hESC-derived ECs were cultured in EGM-2 medium while human anterior cruciate ligament cells (ACL cells) were cultured in Dulbecco's modified Eagle's medium (DMEM; PAA) supplemented with 10% FBS, 0.2 mM ascorbic acid 2-phosphate magnesium salt (Sigma Aldrich), […] streptomycin and 100 U/mL penicillin (Life Technologies). ACL cells were isolated from patients that have signed an informed consent form, in compliance with the Dutch legislation. The ethical committee of Medisch Spectrum Twente Hospital approved the collection.
The LOPAC library (Sigma-Aldrich) was used to screen embryonic endothelial-specific cytotoxic compounds. The compounds were solubilized in DMSO. The final compound concentration used in the screen was 4.5 μM in a final volume of 200 μL per well (96-well plate). HUAECs, hESC-derived EC and ACL cells were seeded at 16,000 cells/well (HUAECs and hESC-derived ECs) and 5,000 cells/well (ACL cells) and allowed to reach near confluence (approximately two days). After two days, medium was exchanged and test compounds and controls were added to the 96-well plates (all wells contained 0.25% (v/v) DMSO). After 4 days of incubation, cell viability was assessed using a PrestoBlue (Invitrogen) assay. This assay is based on a resazurin-based solution that indicates the reducing power of living cells and therefore measures indirectly their number. For each measurement, cell medium was removed and the PrestoBlue solution (10%) was added for 3 h at 37° C. upon which the absorbance was measured at 560-590 nm.
Disruption of vascular development has been directly correlated with prenatal loss, malformations and neurodevelopmental problems^41-44. […] The library was screened at a single dosage of 4.5 μM in a volume of 200 μL per well of EGM-2 medium, containing 0.25% DMSO (v/v). […] Six compounds (danazol, chlorpromazine hydrochloride, ellipticine, 3′,4′-dichlorobenzamil, fluphenazine dihydrochloride and 7-cyclopentyl-5-(4-phenoxy)phenyl-7H-pyrrolo[2,3-d]pyrimidin-4-ylamine) affected cell viability in both cells by a difference of 20% (FIG. 4B). The six compounds belong to different classes: cell cycle, ion pumps, dopamine pathway, phosphorylation and hormone signaling. The compounds selected from the primary screen were then tested against hESC-derived ECs and HUAECs at eight different concentrations to obtain a dose-response curve (FIG. 4C and FIG. 14).

Experiment [3] relates to HUVECs and lymphatic EC tube formation. To be noted: 1 μM, in vitro; cited from earlier work.

The structures appear in SMILES notation.

With `Nc1ncnc2c1c(-c1ccc(Oc3ccccc3)cc1)cn2C1CCCC1` [7-Cyclo, 7-cyclopentyl-5-(4-phenoxy)phenyl-7H-pyrrolo[2,3-d]pyrimidin-4-ylamine], in experiment [1], the “Differences (%) in cell viability (hESC-Derived ECs versus ACL cells)” value worked out at 65.4%. Besides, in experiment [2], the “difference in cell viability between hESC-derived ECs and HUAECs” value came out at 20%. Also, in experiment [3], the tube formation result was “inhibits”.

(Values after US10526580B2, “Differentiated cell population of endothelial cells derived from human pluripotent stem cells, composition, system, kit and uses thereof” (BIOCANT-ASSOCIAÇÃO DE TRANSFERÊNCIA DE TECNOLOGIA, priority 2012, dated 2020).)
